These results are taken from the supplement of paper PMC10307832.

Common to all, as to test: relative viability (nuclei count vs DMSO), 5 days (fraction); higher = more cells survive
Compound in the assay “Sulindac + Decitabine”: CC1=C(CC(=O)O)c2cc(F)ccc2/C1=C\c1ccc([S+](C)[O-])cc1 [Sulindac] + Nc1ncn([C@H]2C[C@H](O)[C@@H](CO)O2)c(=O)n1 [Decitabine] (partner 2 µM)
The procedure, abridged: (§1)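 Medians of duplicate plates are given as relative viability. That measure is the nuclei count in treated wells divided by the count in vehicle wells. Counts were taken on 4× images of lung cancer cell lines in 1536-well plates, 5 days after pin-tool dosing the day after seeding with one drug alone or a fixed anchor-drug dose plus five library-drug doses (not always all listed) in √10 steps.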

Compound in the assay “Staurosporine + OSI-027”: CN[C@@H]1C[C@H]2O[C@@](C)([C@@H]1OC)n1c3ccccc3c3c4c(c5c6ccccc6n2c5c31)C(=O)NC4 [Staurosporine] + COc1cccc2cc(-c3nc([C@H]4CC[C@H](C(=O)O)CC4)n4ncnc(N)c34)[nH]c12 [OSI-027] (partner 0.5 µM)
The gist of the method:
as §1

Compound in the assay “Sulindac + Bortezomib”: CC1=C(CC(=O)O)c2cc(F)ccc2/C1=C\c1ccc([S+](C)[O-])cc1 [Sulindac] + CC(C)C[C@H](NC(=O)[C@H](Cc1ccccc1)NC(=O)c1cnccn1)B(O)O [Bortezomib] (partner 0.002 µM)
The gist of the method:
as §1

Compound in the assay “Sulindac + Palbociclib”: CC1=C(CC(=O)O)c2cc(F)ccc2/C1=C\c1ccc([S+](C)[O-])cc1 [Sulindac] + CC(=O)c1c(C)c2cnc(Nc3ccc(N4CCNCC4)cn3)nc2n(C2CCCC2)c1=O [Palbociclib] (partner 0.5 µM)
The procedure, abridged:
as §1

For UMC-11, the relative viability was found to be 0.595 in the assay with Sulindac + Decitabine (first compound 0.08 µM); 0.627 with Sulindac + Decitabine (first compound 0.253 µM); 0.535 with Sulindac + Decitabine (first compound 0.8 µM); 0.584 in the assay with Sulindac + Decitabine (first compound 2.53 µM); 0.65 with Sulindac + Decitabine (first compound 8 µM); 0.5 with Staurosporine + OSI-027 (first compound 0.005 µM). For the same cell line, the relative viability with Staurosporine + OSI-027 (first compound 0.01581 µM) was found to be 0.151; with Staurosporine + OSI-027 (first compound 0.05 µM), 0.138; with Staurosporine + OSI-027 (first compound 0.1581 µM), 0.133; with Staurosporine + OSI-027 (first compound 0.5 µM), 0.116; in the assay with Sulindac + Bortezomib (first compound 0.08 µM), 0.952; with Sulindac + Bortezomib (first compound 0.253 µM), 0.996. The relative viability worked out at 0.359 in the assay with Sulindac + Bortezomib (first compound 0.8 µM); 0.703 in the assay with Sulindac + Bortezomib (first compound 2.53 µM); 0.846 in the assay with Sulindac + Bortezomib (first compound 8 µM); 0.304 in the assay with Sulindac + Palbociclib (first compound 0.08 µM); 0.333 in the assay with Sulindac + Palbociclib (first compound 0.253 µM); 0.318 in the assay with Sulindac + Palbociclib (first compound 0.8 µM). Also, the relative viability with Sulindac + Palbociclib (first compound 2.53 µM) worked out at 0.328; in the assay with Sulindac + Palbociclib (first compound 8 µM), 0.364.
